Assay results: ChEMBL document CHEMBL1123916, “Facile synthesis of 2-[(3-aminopropyl)thio]adenosine 5'-diphosphate: a key intermediate for the synthesis of molecular probes of adenosine 5'-diphosphate function” (J Med Chem, 1987)
Active and inactive are the calls of the source.

Assays:
Type in all cases: functional, organism-based
Homo sapiens [1] = species on record: Homo sapiens; experiment: Reversible aggregation effect at low concentration; Active
Homo sapiens [2] = species on record: Homo sapiens; experiment: Biphasic response at low concentration; Active
Homo sapiens [3] = species on record: Homo sapiens; experiment: Agonistic activity against platelet aggregation; Effective agonist; details: filed as agonist

Measured: Activity

Nc1ncnc2c1ncn2[C@@H]1O[C@H](COP(=O)(O)OP(=O)(O)O)[C@@H](O)[C@H]1O
active: Homo sapiens [1] | Homo sapiens [2] | Homo sapiens [3] Agonist
